Earlier results as cited in patent publication US9199026B2, “Modular extracorporeal systems and methods for treating blood-borne diseases” (SOMERSET GROUP ENTERPRISES, INC., priority 2011, dated 2015).
Like-named read-outs stand apart in the source and are kept apart here.

Experiments:
[1] = not given; remark: listed apart in the source
[2] = not given; remark: listed apart in the source
bacteria = details: for activity (bactericidal / static): second line of the cell pair 'Spectrum; for Spectrum: first line of the cell pair 'Spectrum, activity'

Compound: Nc1nc(NC2CC2)c2ncn([C@H]3C=C[C@@H](CO)C3)c2n1 [Abacavir]
- Percent removed By hemodialysis (in vivo): 24%

Compound: CC1(C)S[C@@H]2[C@H](/N=C/N3CCCCCC3)C(=O)N2[C@H]1C(=O)O [Amdinocillin]
- Percent removed By CAPD ([1]; in vivo): Negligible (<4%)
- Percent removed By hemodialysis (in vivo): 32-70%

Compound: CC1(C)S[C@@H]2[C@H](NC(=O)[C@H](N)c3ccc(O)cc3)C(=O)N2[C@H]1C(=O)O [Amoxicillin]
- Percent removed By hemodialysis (in vivo): 30%

Compound: CC[C@H]1OC(=O)[C@H](C)[C@@H](O[C@H]2C[C@@](C)(OC)[C@@H](O)[C@H](C)O2)[C@H](C)[C@@H](O[C@@H]2O[C@H](C)C[C@H](N(C)C)[C@H]2O)[C@](C)(O)C[C@@H](C)CN(C)[C@H](C)[C@@H](O)[C@]1(C)O [Azithromycin]
- pKa ([2]; no group stated): 8.1

Compound: C[C@@H](O)[C@H]1C(=O)N2C(C(=O)[O-])=C(SC3Cn4cnc[n+]4C3)[C@H](C)[C@H]12 (stereo partly shown) [Biapenem]
- Percent removed By hemodialysis (in vivo): 90%

Compound: CC1(C)S[C@@H]2[C@H](NC(=O)C(C(=O)O)c3ccccc3)C(=O)N2[C@H]1C(=O)O (stereo partly shown) [Carbenicillin]
- Percent removed By hemodialysis (in vivo): 50%

Compound: N[C@@H](C(=O)N[C@@H]1C(=O)N2C(C(=O)O)=C(Cl)CS[C@H]12)c1ccccc1 [Cefaclor]
- Percent removed By hemodialysis (in vivo): 33%

Compound: Cc1nnc(SCC2=C(C(=O)O)N3C(=O)[C@@H](NC(=O)Cn4cnnn4)[C@H]3SC2)s1 [Cefazolin]
- Percent removed By CAPD ([1]; CAPD): 20%
- Percent removed By hemodialysis (hemodialysis): 50%

Compound: CO/N=C(\C(=O)N[C@@H]1C(=O)N2C(C(=O)[O-])=C(C[N+]3(C)CCCC3)CS[C@H]12)c1csc(N)n1 [Cefipime]
- Percent removed By CAPD ([1]; CAPD): 26%
- Percent removed By hemodialysis (hemodialysis): 40-70%

Compound: CO/N=C(\C(=O)N[C@@H]1C(=O)N2C(C(=O)O)=C(CSc3nnnn3C)CS[C@H]12)c1csc(N)n1 [Cefmenoxime]
- Percent removed By CAPD ([1]; in vivo): Negligible (<10%)
- Percent removed By hemodialysis (in vivo): 16-51%

Compound: CO[C@@]1(NC(=O)CSCC#N)C(=O)N2C(C(=O)O)=C(CSc3nnnn3C)CS[C@@H]21 [Cefmetazole]
- Percent removed By hemodialysis (in vivo): 60%

Compound: CO/N=C(\C(=O)N[C@@H]1C(=O)N2C(C(=O)O)=C(CSc3nc(C)c(CC(=O)O)s3)CS[C@H]12)c1csc(N)n1 [Cefodizime]
- Percent removed By CAPD ([1]; in vivo): Negligible (15%)
- Percent removed By hemodialysis (in vivo): 50%

Compound: NCc1ccccc1CC(=O)N[C@@H]1C(=O)N2C(C(=O)O)=C(CSc3nnnn3CC(=O)O)CS[C@H]12 [Ceforanide]
- Percent removed By CAPD ([1]; in vivo): Negligible
- Percent removed By hemodialysis (in vivo): 20-50%

Compound: CO[C@@]1(NC(=O)Cc2cccs2)C(=O)N2C(C(=O)O)=C(COC(N)=O)CS[C@@H]21 [Cefoxitin]
- Percent removed By CAPD ([1]; in vivo): Negligible
- Percent removed By hemodialysis (in vivo): 50%

Compound: CO/N=C(\C(=O)N[C@@H]1C(=O)N2C(C(=O)[O-])=C(C[n+]3cccc4c3CCC4)CS[C@H]12)c1csc(N)n1 [Cefpirome]
- Percent removed By CAPD ([1]; in vivo): Negligible (12%)
- Percent removed By hemodialysis (in vivo): 32-48%

Compound: COCC1=C(C(=O)O)N2C(=O)[C@@H](NC(=O)/C(=N\OC)c3csc(N)n3)[C@H]2SC1 [Cefpodoxime]
- Percent removed By hemodialysis (in vivo): 50%

Compound: CC=CC1=C(C(=O)O)N2C(=O)[C@@H](NC(=O)[C@H](N)c3ccc(O)cc3)[C@H]2SC1 [Cefprozil]
- Percent removed By hemodialysis (in vivo): 55%

Compound: COC1=C(C(=O)O)N2C(=O)[C@@H](NC(=O)[C@H](N)C3=CCC=CC3)[C@H]2SC1 [Cefroxadine]
- Percent removed By hemodialysis (in vivo): 50%

Compound: NC(=O)c1cc[n+](CC2=C(C(=O)O)N3C(=O)[C@@H](NC(=O)[C@@H](c4ccccc4)S(=O)(=O)[O-])[C@H]3SC2)cc1 [Cefsulodin]
- Percent removed By hemodialysis (hemodialysis): 60%

Compound: CC(C)(O/N=C(\C(=O)N[C@@H]1C(=O)N2C(C(=O)[O-])=C(C[n+]3ccccc3)CS[C@H]12)c1csc(N)n1)C(=O)O [Ceftazidime]
- Percent removed By CAPD ([1]; in vivo): Negligible
- Percent removed By hemodialysis (in vivo): 50%

Compound: Nc1nc(/C(=C/CC(=O)O)C(=O)N[C@@H]2C(=O)N3C(C(=O)O)=CCS[C@H]23)cs1 [Ceftibuten]
- Percent removed By hemodialysis (in vivo): 39%

Compound: CO/N=C(\C(=O)N[C@@H]1C(=O)N2C(C(=O)O)=CCS[C@H]12)c1csc(N)n1 [Ceftizoxime]
- Percent removed By CAPD ([1]; in vivo): Negligible (16%)
- Percent removed By hemodialysis (in vivo): 50%

Compound: CO/N=C(\C(=O)N[C@@H]1C(=O)N2C(C(=O)O)=C(CSc3nc(=O)c(=O)[nH]n3C)CS[C@H]12)c1csc(N)n1 [Ceftriaxone sodium]
- pKa ([2]; (NH2)): 3.2

Compound: CO/N=C(\C(=O)N[C@@H]1C(=O)N2C(C(=O)O)=C(CSc3nc(=O)c(=O)[nH]n3C)CS[C@H]12)c1csc(N)n1 [Ceftriaxone]
- Percent removed By CAPD ([1]; in vivo): Negligible (4.5%)
- Percent removed By hemodialysis (in vivo): 40%

Compound: CO/N=C(\C(=O)N[C@@H]1C(=O)N2C(C(=O)O)=C(COC(N)=O)CS[C@H]12)c1ccco1 [Cefuroxime sodium]
- pKa ([2]; no group stated): 2.5

Compound: CO/N=C(\C(=O)N[C@@H]1C(=O)N2C(C(=O)O)=C(COC(N)=O)CS[C@H]12)c1ccco1 [Cefuroxime]
- Percent removed By CAPD ([1]; in vivo): 20%

Compound: CC(=O)OCC1=C(C(=O)O)N2C(=O)[C@@H](NC(=O)CC#N)[C@H]2SC1 [Cephacetrile]
- Percent removed By hemodialysis (in vivo): 50%

Compound: CC1=C(C(=O)O)N2C(=O)[C@@H](NC(=O)[C@H](N)c3ccccc3)[C@H]2SC1 [Cephalexin]
- Percent removed By CAPD ([1]; in vivo): 30%
- Percent removed By hemodialysis (in vivo): 50-75%

Compound: CC(=O)OCC1=C(C(=O)O)N2C(=O)[C@@H](NC(=O)Cc3cccs3)[C@H]2SC1 [Cephalothin]
- Percent removed By hemodialysis (in vivo): 50%

Compound: CC(=O)OCC1=C(C(=O)O)N2C(=O)[C@@H](NC(=O)CSc3ccncc3)[C@H]2SC1 [Cephapirin]
- Percent removed By hemodialysis (hemodialysis): 20%

Compound: Nc1ccn(C[C@@H](CO)OCP(=O)(O)O)c(=O)n1 [Cidofovir]
- Percent removed By CAPD ([1]; CAPD): Negligible
- Percent removed By hemodialysis (hemodialysis): 50%

Compound: O=C(O)c1cn(C2CC2)c2cc(N3CCNCC3)c(F)cc2c1=O [Ciprofloxalin]
- activity (bactericidal / static) (bacteria): bactericidal

Compound: CCCCCCCCCC(=O)N[C@@H](Cc1c[nH]c2ccccc12)C(=O)N[C@H](CC(N)=O)C(=O)N[C@@H](CC(=O)O)C(=O)N[C@@H]1C(=O)NCC(=O)N[C@@H](CCCN)C(=O)N[C@@H](CC(=O)O)C(=O)N[C@H](C)C(=O)N[C@@H](CC(=O)O)C(=O)NCC(=O)N[C@H](CO)C(=O)N[C@@H]([C@H](C)CC(=O)O)C(=O)N[C@@H](CC(=O)c2ccccc2N)C(=O)O[C@@H]1C [Daptomycin]
- Spectrum (bacteria): Gram positive,
- activity (bactericidal / static) (bacteria): bactericidal

Compound: CN(C)CCn1nnnc1SCC1=C(C(=O)O)N2C(=O)[C@@H](NC(=O)Cc3csc(N)n3)[C@H]2SC1 [Defotiam]
- Percent removed By hemodialysis (in vivo): 30-40%

Compound: C[C@@H](O)[C@H]1C(=O)N2C(C(=O)O)=C(SCCN=CN)C[C@H]12 [Imipenem]
- Percent removed By CAPD ([1]; in vivo): Negligible
- Percent removed By hemodialysis (in vivo): 80-90%

Compound: NNC(=O)c1ccncc1 [Isoniazid]
- Percent removed By hemodialysis (in vivo): 75%

Compound: CC(=O)NC[C@H]1CN(c2ccc(N3CCOCC3)c(F)c2)C(=O)O1 [Linezolid]
- Percent removed By hemodialysis (hemodialysis): 33%

Compound: C[C@@H](O)[C@H]1C(=O)N2C(C(=O)O)=C(S[C@@H]3CN[C@H](C(=O)N(C)C)C3)[C@H](C)[C@H]12 [Meropenem]
- Percent removed By hemodialysis (in vivo): 50-70%

Compound: CC1(C)S[C@@H]2[C@H](NC(=O)[C@H](NC(=O)N3CCN(S(C)(=O)=O)C3=O)c3ccccc3)C(=O)N2[C@H]1C(=O)O [Mezlocillin]
- Percent removed By CAPD ([1]; in vivo): 24%
- Percent removed By hemodialysis (in vivo): 20-25%

Compound: CO[C@@]1(NC(=O)C(C(=O)O)c2ccc(O)cc2)C(=O)N2C(C(=O)O)=C(CSc3nnnn3C)CO[C@@H]21 (stereo partly shown) [Moxalactam]
- Percent removed By CAPD ([1]; in vivo): Negligible (15-20%)
- Percent removed By hemodialysis (in vivo): 30-50%

Compound: Nc1ccc(C(=O)O)c(O)c1 [Para-aminosalicylic Acid]
- Percent removed By hemodialysis (hemodialysis): 50%

Compound: CC1(C)S[C@@H]2[C@H](NC(=O)Cc3ccccc3)C(=O)N2[C@H]1C(=O)O [Penicillin G]
- pKa ([2]; no group stated): 2.8

Compound: CN[C@@H]1[C@H](O)[C@H](NC)[C@H]2O[C@@]3(O)C(=O)C[C@@H](C)O[C@H]3O[C@@H]2[C@H]1O [Spectinomycin]
- Percent removed By hemodialysis (in vivo): 50%

Compound: CO[C@@]1(NC(=O)C(C(=O)O)c2ccsc2)C(=O)N2[C@@H](C(=O)O)C(C)(C)S[C@@H]21 (stereo partly shown) [Temocillin]
- Percent removed By CAPD ([1]; CAPD): Negligible (6%)
- Percent removed By hemodialysis (hemodialysis): 50%

Compound: NC[C@H]1O[C@H](O[C@H]2[C@H](O)[C@@H](O[C@H]3O[C@H](CO)[C@@H](O)[C@H](N)[C@H]3O)[C@H](N)C[C@@H]2N)[C@H](N)C[C@@H]1O [Tobramycin]
- Spectrum (bacteria): Gram negative,
- activity (bactericidal / static) (bacteria): bactericidal

Compound: COc1cc(Cc2cnc(N)nc2N)cc(OC)c1OC [Trimethoprim]
- Percent removed By CAPD ([1]; in vivo): Negligible (7%)
- Percent removed By hemodialysis (in vivo): 50%

Compound: N[C@@H]1[C@H]2CN(c3nc4c(cc3F)c(=O)c(C(=O)O)cn4-c3ccc(F)cc3F)C[C@@H]12 [Trovafloxacin]
- Spectrum (bacteria): Broad,
- activity (bactericidal / static) (bacteria): bactericidal

Compound: Gentamycin
- Spectrum (bacteria): Gram negative,
- activity (bactericidal / static) (bacteria): bactericidal

Compound: Penicillin
- Percent removed By hemodialysis (hemodialysis): 50%

Compound: Polymixin B
- Spectrum (bacteria): G−,
- activity (bactericidal / static) (bacteria): bactericidal
